# Measured values: patent US6841519B1, “Isoxazoline derivatives and herbicides containing the same as the active ingredient” (Kumiai Chemical Industry Co., Ltd., priority 1999, dated 2005)
# Key:
# Type in all cases: in vivo
# rice (Or) = assay: Test for crop selectivity by paddy field soil treatment (Test Example 4), phytotoxicity to rice; settings: transplanted two-leaf stage rice, 100 g/10 a active ingredient, 21st day
# Protocol: (§1) [table] <Test Example 4> Test For Crop Selectivity By Paddy Field Soil Treatment A paddy field soil was filled in a plastic pot of 100 cm^2 and subjected to puddling. Seeds of Echinochloa oryzicola Vasing. (Eo) were sowed; two-leaf stage seedlings of rice (Or) were transplanted in a depth of 2 cm; and water was filled in a depth of 3 cm. Next day, wettable powders produced in accordance with the Formulation 1 were diluted with water and dropped on the water surface. The application amount of each wettable powder was 100 g per 10 ares in terms of the active ingredient. Then, breeding was made in a greenhouse. At the 21st day from the treatment, the phytotoxicity and herbicidal effect of each wettable powder were examined in accordance with the standard shown in Table 40.
# [1] = system: Echinochloa oryzicola Vasing. (Eo); assay: Test for crop selectivity by paddy field soil treatment (Test Example 4), herbicidal effect on Eo; settings: 100 g/10 a active ingredient, 21st day
# Protocol: as §1
# [2] = system: Echinochloa oryzicola Vasing. (Eo); assay: Test for herbicidal effect by paddy field soil treatment (Test Example 1); settings: application amount (active ingredient) 100 g/10 a, examined at the 21st day from the treatment, index per Table 40
# Procedure, shortened: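 Eo seeds sown in puddled paddy soil under 3 cm water; next day a water-diluted wettable powder was dropped onto the water surface at 100 g active ingredient per 10 ares. Herbicidal effect scored on a standard scale 21 days after treatment, greenhouse-grown.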
# [3] = system: Setaria viridis (L.) Beauv. (Se); assay: Test for herbicidal effect by upland field soil treatment (Test Example 2), Se
# Procedure, shortened: (§2)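 Echinochloa crus-galli and Setaria viridis were sown in upland field soil and covered, then the soil surface was sprayed with water-diluted wettable powder at 100 g active ingredient per 10 ares (100 liters per 10 ares). Plants were grown in a greenhouse and scored on a standard scale on day 21.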
# [4] = system: Echinochloa crus-galli (L.) Beauv. var. crusgalli (Ec); assay: Test for herbicidal effect by upland foliage treatment (Test Example 3); settings: 100 g/10 a active ingredient, examined at 14th day
# Procedure, shortened: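 Potted upland-soil Ec seedlings grown 2 weeks in greenhouse, then foliage-sprayed with water-diluted wettable powder at 100 L per 10 ares, giving 100 g active ingredient per 10 ares. Herbicidal effect scored on a graded standard 14 days after treatment.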
# [5] = system: Echinochloa crus-galli (L.) Beauv. var. crusgall (Ec); assay: Test for herbicidal effect by upland field soil treatment (Test Example 2), Ec
# Procedure, shortened: as §2
# [6] = 100 g/10 a active ingredient, examined at 21st day
# [7] = application amount (active ingredient) 100 g/10 a, examined at the 21st day from the treatment, index per Table 40
Structure (SMILES),Phytotoxicity to Or (rice (Or)),Herbicidal effect to Eo [1],Herbicidal effect to Eo [2],"Herbicidal effect to Se [3, 6]",Herbicidal effect to Ec [4],"Herbicidal effect to Ec [5, 6]","Herbicidal effect to Se [3, 7]","Herbicidal effect to Ec [5, 7]"
CC(C)COC(=O)c1ccccc1CS(=O)(=O)C1=NOC(C)(C)C1 [Compound 1-598],1 (A herbicidal effect or phytotoxicity of 10% to less than 30%),5 (A herbicidal effect or phytotoxicity of 90% or more),5 (A herbicidal effect or phytotoxicity of 90% or more),,,,,
O=S(=O)(Cc1c(F)cccc1F)C1=NOC2CCCCCCC12 (centres unmarked) [Compound 1-519],0 (A herbicidal effect or phytotoxicity of 0% to less than 10%),5 (A herbicidal effect or phytotoxicity of 90% or more),5 (A herbicidal effect or phytotoxicity of 90% or more),,,,,
CC1(C)CC(S(=O)(=O)Cc2c(Cl)cccc2C(=O)OCc2ccccc2)=NO1 [Compound 1-625],1 (A herbicidal effect or phytotoxicity of 10% to less than 30%),5 (A herbicidal effect or phytotoxicity of 90% or more),5 (A herbicidal effect or phytotoxicity of 90% or more),,,,,
CC1(C)CC(S(=O)(=O)Cc2ccccc2N)=NO1 [Compound 1-552],1 (A herbicidal effect or phytotoxicity of 10% to less than 30%),4 (A herbicidal effect or phytotoxicity of 70% to less than 90%),4 (A herbicidal effect or phytotoxicity of 70% to less than 90%),,,,,
CC1(COCc2c(F)cccc2F)CC(S(=O)(=O)Cc2c(F)cccc2F)=NO1 (centres unmarked) [Compound 1-401],0 (A herbicidal effect or phytotoxicity of 0% to less than 10%),5 (A herbicidal effect or phytotoxicity of 90% or more),5 (A herbicidal effect or phytotoxicity of 90% or more),,,,,
CCC1(C)CC(S(=O)(=O)Cc2ccc(OC)cc2)=NO1 (centres unmarked) [Compound 1-230],0 (A herbicidal effect or phytotoxicity of 0% to less than 10%),5 (A herbicidal effect or phytotoxicity of 90% or more),5 (A herbicidal effect or phytotoxicity of 90% or more),,,,,
CC1(C)CC(S(=O)(=O)Cc2ccccc2OCc2ccccc2)=NO1 [Compound 1-588],1 (A herbicidal effect or phytotoxicity of 10% to less than 30%),5 (A herbicidal effect or phytotoxicity of 90% or more),5 (A herbicidal effect or phytotoxicity of 90% or more),,,,,
CC1(C(=O)O)CC(SCc2c(F)cccc2F)=NO1 (centres unmarked) [Compound 1-419],1 (A herbicidal effect or phytotoxicity of 10% to less than 30%),5 (A herbicidal effect or phytotoxicity of 90% or more),5 (A herbicidal effect or phytotoxicity of 90% or more),,,,,
CC1(C)CC(S(=O)(=O)Cc2c(Cl)cccc2C(=O)OCc2ccccc2Cl)=NO1 [Compound 1-626],0 (A herbicidal effect or phytotoxicity of 0% to less than 10%),5 (A herbicidal effect or phytotoxicity of 90% or more),5 (A herbicidal effect or phytotoxicity of 90% or more),,,,,
CC(C)C1(C)CC([S+]([O-])Cc2c(F)cccc2F)=NO1 (centres unmarked) [Compound 1-367],1 (A herbicidal effect or phytotoxicity of 10% to less than 30%),5 (A herbicidal effect or phytotoxicity of 90% or more),5 (A herbicidal effect or phytotoxicity of 90% or more),,,,,
CC1(C)CC(S(=O)(=O)Cc2ccccc2C(=O)OCc2ccc(Cl)cc2)=NO1 [Compound 1-614],0 (A herbicidal effect or phytotoxicity of 0% to less than 10%),5 (A herbicidal effect or phytotoxicity of 90% or more),5 (A herbicidal effect or phytotoxicity of 90% or more),,,,,
COCCOc1ccccc1CS(=O)(=O)C1=NOC(C)(C)C1 [Compound 1-579],1 (A herbicidal effect or phytotoxicity of 10% to less than 30%),5 (A herbicidal effect or phytotoxicity of 90% or more),5 (A herbicidal effect or phytotoxicity of 90% or more),,,,,
Fc1cccc(F)c1CSC1=NOC2CCCCC12 (centres unmarked) [Compound 1-386],0 (A herbicidal effect or phytotoxicity of 0% to less than 10%),4 (A herbicidal effect or phytotoxicity of 70% to less than 90%),4 (A herbicidal effect or phytotoxicity of 70% to less than 90%),,,,,
CCS(=O)(=O)C1=NOC(C)(C)C1 [Compound 2-2],0 (A herbicidal effect or phytotoxicity of 0% to less than 10%),5 (A herbicidal effect or phytotoxicity of 90% or more),5 (A herbicidal effect or phytotoxicity of 90% or more),,,,,
CCC1(C)CC(S(=O)(=O)CCc2ccccc2)=NO1 (centres unmarked) [Compound 1-456],0 (A herbicidal effect or phytotoxicity of 0% to less than 10%),5 (A herbicidal effect or phytotoxicity of 90% or more),5 (A herbicidal effect or phytotoxicity of 90% or more),,,,,
CC1(C)CC(S(=O)(=O)Cc2ccccc2C(=O)OCc2ccccc2Cl)=NO1 [Compound 1-612],0 (A herbicidal effect or phytotoxicity of 0% to less than 10%),5 (A herbicidal effect or phytotoxicity of 90% or more),5 (A herbicidal effect or phytotoxicity of 90% or more),,,,,
CCC1(C)CC(S(=O)(=O)CCCc2ccccc2)=NO1 (centres unmarked) [Compound 1-457],1 (A herbicidal effect or phytotoxicity of 10% to less than 30%),5 (A herbicidal effect or phytotoxicity of 90% or more),5 (A herbicidal effect or phytotoxicity of 90% or more),,,,,
CC1(C)CC(S(=O)(=O)Cc2c(Cl)cccc2C(=O)OCc2cccc(Cl)c2)=NO1 [Compound 1-627],1 (A herbicidal effect or phytotoxicity of 10% to less than 30%),5 (A herbicidal effect or phytotoxicity of 90% or more),5 (A herbicidal effect or phytotoxicity of 90% or more),,,,,
CCCC1(C)CC([S+]([O-])Cc2c(F)cccc2F)=NO1 (centres unmarked) [Compound 1-365],1 (A herbicidal effect or phytotoxicity of 10% to less than 30%),5 (A herbicidal effect or phytotoxicity of 90% or more),5 (A herbicidal effect or phytotoxicity of 90% or more),,,,,
CC1(C)CC(S(=O)(=O)Cc2ccccc2C(=O)OCc2cccc(Cl)c2)=NO1 [Compound 1-613],0 (A herbicidal effect or phytotoxicity of 0% to less than 10%),5 (A herbicidal effect or phytotoxicity of 90% or more),5 (A herbicidal effect or phytotoxicity of 90% or more),,,,,
Cc1ccc(C)c(CS(=O)(=O)C2=NOC(C)(C)C2)c1 [Compound 1-512],,,5 (A herbicidal effect or phytotoxicity of 90% or more),5 (A herbicidal effect or phytotoxicity of 90% or more),5 (A herbicidal effect or phytotoxicity of 90% or more),5 (A herbicidal effect or phytotoxicity of 90% or more),,
CC(C)COc1cccc(Cl)c1CS(=O)(=O)C1=NOC(C)(C)C1 [Compound 1-572],,,5 (A herbicidal effect or phytotoxicity of 90% or more),5 (A herbicidal effect or phytotoxicity of 90% or more),4 (A herbicidal effect or phytotoxicity of 70% to less than 90%),5 (A herbicidal effect or phytotoxicity of 90% or more),,
CC1(C)CC(S(=O)(=O)Cc2ccccc2F)=NO1 [Compound 1-32],,,5 (A herbicidal effect or phytotoxicity of 90% or more),,5 (A herbicidal effect or phytotoxicity of 90% or more),,5 (A herbicidal effect or phytotoxicity of 90% or more),5 (A herbicidal effect or phytotoxicity of 90% or more)
CC1(C)CC(S(=O)(=O)Cc2ccccc2S(=O)(=O)C(F)(F)F)=NO1 [Compound 1-517],,,5 (A herbicidal effect or phytotoxicity of 90% or more),5 (A herbicidal effect or phytotoxicity of 90% or more),5 (A herbicidal effect or phytotoxicity of 90% or more),5 (A herbicidal effect or phytotoxicity of 90% or more),,
Cc1cccc(CS(=O)(=O)C2=NOC(C)(C)C2)c1F [Compound 1-187],,,5 (A herbicidal effect or phytotoxicity of 90% or more),,5 (A herbicidal effect or phytotoxicity of 90% or more),,5 (A herbicidal effect or phytotoxicity of 90% or more),5 (A herbicidal effect or phytotoxicity of 90% or more)
